Assay results taken from PMC5008829, “Computational Analysis of the Ligand Binding Site of the Extracellular ATP Receptor, DORN1” (PLoS ONE, 2016).

What was measured:
Assay in all cases: radioligand saturation binding, Sephadex G-25 gel filtration
[1] = molecular target: T1, DORN1 WT (LEC), lectin domain only (Arabidopsis thaliana, UniProt Q9LSR8); conditions: [γ-32P]ATP labelled compound; 10 mM HEPES pH 7.5, 5 mM MgCl2, on ice 30 min
T1 construct: gene LECRK19; L-type lectin domain only, recombinant from E. coli (GST fusion likely)
T1 sequence (Q9LSR8 22-257 limits assumed): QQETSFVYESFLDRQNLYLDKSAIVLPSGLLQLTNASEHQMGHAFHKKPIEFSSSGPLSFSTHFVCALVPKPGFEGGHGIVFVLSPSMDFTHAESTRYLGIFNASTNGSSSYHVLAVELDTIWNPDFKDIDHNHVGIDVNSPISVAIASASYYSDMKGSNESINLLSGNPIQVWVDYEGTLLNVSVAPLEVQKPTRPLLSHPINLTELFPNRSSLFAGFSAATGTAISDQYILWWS
From the text: radioligand saturation binding, Sephadex G-25 gel filtration on DORN1 WT (LEC), lectin domain only | WT (LEC): lectin domain only, WT (ECD): extracellular domain

[2] = molecular target: T2, DORN1 WT (ECD), extracellular domain (Arabidopsis thaliana, UniProt Q9LSR8, DEL116-118)
T2 construct: gene LECRK19; extracellular domain, signal peptide removed, pGEX-5X N-terminal GST fusion, E. coli BL21-AI, glutathione Sepharose; primers encode QETSFVY...APHKKVST
T2 sequence (Q9LSR8 with tags, fused parts or gaps DEL116-118): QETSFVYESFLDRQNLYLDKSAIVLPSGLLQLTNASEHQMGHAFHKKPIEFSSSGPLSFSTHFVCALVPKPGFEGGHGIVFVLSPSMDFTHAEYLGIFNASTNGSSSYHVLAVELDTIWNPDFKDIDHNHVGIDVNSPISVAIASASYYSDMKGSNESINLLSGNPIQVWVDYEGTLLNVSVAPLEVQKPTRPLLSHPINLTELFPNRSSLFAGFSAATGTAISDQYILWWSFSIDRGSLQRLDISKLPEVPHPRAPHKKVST

[3] = molecular target: T3, DORN1 WT (ECD), extracellular domain (Arabidopsis thaliana, UniProt Q9LSR8, DEL141-146)
T3 construct: gene LECRK19; extracellular domain, signal peptide removed, pGEX-5X N-terminal GST fusion, E. coli BL21-AI, glutathione Sepharose; primers encode QETSFVY...APHKKVST
T3 sequence (Q9LSR8 with tags, fused parts or gaps DEL141-146): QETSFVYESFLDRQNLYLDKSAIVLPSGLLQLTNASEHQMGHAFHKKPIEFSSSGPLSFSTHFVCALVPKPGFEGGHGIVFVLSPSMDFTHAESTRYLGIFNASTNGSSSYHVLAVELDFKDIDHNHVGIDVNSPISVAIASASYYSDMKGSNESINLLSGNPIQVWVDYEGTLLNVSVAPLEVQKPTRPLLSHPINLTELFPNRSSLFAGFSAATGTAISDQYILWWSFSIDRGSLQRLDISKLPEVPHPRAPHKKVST

[4] = molecular target: T4, DORN1 WT (ECD), extracellular domain (Arabidopsis thaliana, UniProt Q9LSR8)
T4 construct: gene LECRK19; extracellular domain, signal peptide removed, pGEX-5X N-terminal GST fusion, E. coli BL21-AI, glutathione Sepharose; primers encode QETSFVY...APHKKVST
T4 sequence (Q9LSR8 23-288): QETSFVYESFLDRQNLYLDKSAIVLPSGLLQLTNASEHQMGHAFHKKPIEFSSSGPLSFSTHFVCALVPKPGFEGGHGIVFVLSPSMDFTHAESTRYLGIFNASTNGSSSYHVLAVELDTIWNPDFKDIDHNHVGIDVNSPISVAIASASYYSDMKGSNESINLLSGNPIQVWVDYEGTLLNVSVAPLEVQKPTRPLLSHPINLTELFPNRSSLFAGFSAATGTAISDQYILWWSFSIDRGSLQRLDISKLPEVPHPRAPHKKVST

Kd [1]: 52.6 nM | Kd [2]: 534 nM | Kd [3]: 190 nM | Kd [4]: 38.3 nM
Compound: Nc1ncnc2c1ncn2[C@@H]1O[C@H](COP(=O)(O)OP(=O)(O)OP(=O)(O)O)[C@@H](O)[C@H]1O [ATP]
